# According to patent US8344010B2, “Fused imidazole derivatives as TRPV3 antagonist” (Glenmark Pharmaceuticals S.A., priority 2008, dated 2013):
# pIC50: −log10 of the molar value.
# Biological target: T1, Human TRPV3 (Homo sapiens, UniProt Q8NET8)
# T1 construct: expressed in transfected cells; host or cells: CHO cells (selected with G-418)
# T1 sequence (Q8NET8 1-790): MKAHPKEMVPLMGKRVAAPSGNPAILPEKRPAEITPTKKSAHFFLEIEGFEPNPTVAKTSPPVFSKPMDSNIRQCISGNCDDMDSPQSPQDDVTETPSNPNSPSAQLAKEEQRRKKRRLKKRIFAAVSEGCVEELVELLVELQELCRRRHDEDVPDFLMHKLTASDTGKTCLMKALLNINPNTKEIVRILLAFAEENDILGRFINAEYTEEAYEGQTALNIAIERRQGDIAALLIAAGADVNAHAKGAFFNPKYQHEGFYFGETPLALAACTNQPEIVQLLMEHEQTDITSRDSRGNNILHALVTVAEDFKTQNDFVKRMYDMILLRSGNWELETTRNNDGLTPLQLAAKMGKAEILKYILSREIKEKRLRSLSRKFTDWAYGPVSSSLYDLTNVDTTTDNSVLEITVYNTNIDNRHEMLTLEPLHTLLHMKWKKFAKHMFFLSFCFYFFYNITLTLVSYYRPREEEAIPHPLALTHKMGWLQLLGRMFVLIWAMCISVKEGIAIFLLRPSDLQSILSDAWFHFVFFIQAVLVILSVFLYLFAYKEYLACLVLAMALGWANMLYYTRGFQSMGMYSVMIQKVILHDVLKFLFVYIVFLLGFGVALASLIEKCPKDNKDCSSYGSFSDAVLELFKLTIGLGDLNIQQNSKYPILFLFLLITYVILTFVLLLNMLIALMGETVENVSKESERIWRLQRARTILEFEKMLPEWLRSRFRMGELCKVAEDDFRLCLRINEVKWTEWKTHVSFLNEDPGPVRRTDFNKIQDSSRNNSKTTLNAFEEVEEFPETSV
# Assay: 45Calcium uptake assay: inhibition of 2-APB induced cellular uptake of radioactive calcium
# Type: cell-based
# Conditions: human TRPV3 expressing CHO cells, 2-APB 500 μM; for inhibition at 1 µM: 1 μM test compound, read-out: Percentage Inhibition (1 μM); for inhibition at 10 µM: 10 μM test compound, read-out: Percentage Inhibition (10 μM)
# Procedure, shortened: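 CHO cells expressing human TRPV3 were preincubated with compound for 10 min (0.5% DMSO final), then given 500 μM 2-APB plus 5 μCi/ml 45Ca2+ for 4 min. Lysate radioactivity was counted by scintillation; responses as % of maximal without antagonist, with IC50 by nonlinear regression.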
Compound,inhibition at 1 µM [%],inhibition at 10 µM [%],pIC50 (class symbol),pIC50 (numeric value)
"COc1cccc(/C=C/c2nc3cc(F)c(F)cc3n2-c2ncccc2C#N)c1OC1CCCC1 [Example 61, 2-{2-[(E)-2-(2-Cyclopentyloxy-3-methoxyphenyl)vinyl]-5,6-difluoro-1H-benzimidazol-1-yl}nicotinonitrile]",44.8,96,,
"COc1cccc(/C=C/c2nc3cc(C)c(C)cc3n2-c2ccc(C#N)cn2)c1OC1CCCC1 [Example 62, 6-{2-[(E)-2-(2-[Cyclopentyloxy]-3-methoxyphenyl)vinyl]-5,6-dimethyl-1H-benzimidazol-1-yl}nicotinonitrile]",92,95.9,6.30 to 7.00,
"CCOc1c(/C=C/c2nc3cc(F)c(F)cc3n2-c2ccc(C#N)cn2)cccc1OC [Example 63, 6-{2-[(E)-2-(2-Ethoxy-3-methoxyphenyl)vinyl]-5,6-difluoro-1H-benzimidazol-1-yl}nicotinonitrile]",80.8,97.7,6.30 to 7.00,
"CCCCOc1c(/C=C/c2nc3cc(F)c(F)cc3n2-c2ccc(C#N)cn2)cccc1OC [Example 64, 6-{2-[(E)-2-(2-Butoxy-3-methoxyphenyl)vinyl]-5,6-difluoro-1H-benzimidazol-1-yl}-nicotinonitrile]",96.4,99.9,6.30 to 7.00,
"CCCCCOc1c(/C=C/c2nc3cc(F)c(F)cc3n2-c2ccc(C#N)cn2)cccc1OC [Example 65, 6-{5,6-Difluoro-2-[(E)-2-(2-pentoxy-3-methoxyphenyl)vinyl]-1H-benzimidazol-1-yl}nicotinonitrile]",94.9,97.4,7.00 to 7.30,
"COc1cccc(/C=C/c2nc3cc(F)c(F)cc3n2-c2ccc(C#N)cn2)c1OCC(C)C [Example 66, 6-{5,6-Difluoro-2-[(E)-2-(2-isobutoxy-3-methoxyphenyl)vinyl]-1H-benzimidazol-1-yl}nicotinonitrile]",98.6,99.5,6.30 to 7.00,
COc1cccc(/C=C/c2nc3cc(F)c(F)cc3n2-c2ccc(C#N)cn2)c1OCC1CCC1 [Example 67],95.5,99,> 7.30,
"COc1cccc(/C=C/c2nc3cc(F)c(F)cc3n2-c2ccc(C#N)cn2)c1OC1CCCC1 [Example 68, 6-{2-[(E)-2-(2-Cyclopentyloxy-3-methoxyphenyl)vinyl]-5,6-difluoro-1H-benzimidazol-1-yl}nicotinonitrile]",95,99.1,7.00 to 7.30,
"COc1cccc(/C=C/c2nc3cc(F)c(F)cc3n2-c2ccc(C#N)cn2)c1O [Example 69, 6-{5,6-Difluoro-2-[(E)-2-(2-hydroxy-3-methoxyphenyl)vinyl]-1H-benzimidazol-1-yl}nicotinonitrile]",32.7,95.5,,
"COc1cccc(/C=C/c2nc3cc(F)c(Cl)cc3n2-c2ccc(C#N)cn2)c1OC1CCCC1 [Example 70, 6-{6-Chloro-2-[(E)-2-(2-[cyclopentyloxy]-3-methoxyphenyl)vinyl]-5-fluoro-1H-benzimidazol-1-yl}nicotinonitrile]",96.2,98.1,7.00 to 7.30,
"COc1cccc(/C=C/c2nc3cc(Cl)c(C(F)(F)F)cc3n2-c2ccc(C#N)cn2)c1OC1CCCC1 [Example 71, 6-{5-Chloro-2-[(E)-2-(2-cyclopentyloxy-3-methoxyphenyl)vinyl]-6-(trifluoromethyl)-1H-benzimidazol-1-yl}nicotinonitrile]",53.7,79.4,,
"CCCCOc1c(/C=C/c2nc3ccccc3n2-c2ccc(C(F)(F)F)cn2)cccc1OC [Example 85, 2-[(E)-2-(2-butoxy-3-methoxyphenyl)vinyl]-1-(5-trifluoromethylpyridin-2-yl)-1H-benzimidazole]",71.1,90.2,6.30 to 7.00,

# The remaining lines, values ahead:
inhibition at 1 µM [%],inhibition at 10 µM [%],pIC50 (class symbol),pIC50 (numeric value),Compound
90.8,95.5,6.30 to 7.00,,"COc1cccc(/C=C/c2nc3cc(Cl)c(Cl)cc3n2-c2ccc(C#N)cn2)c1OC1CCCC1 [Example 72, 6-{5,6-Dichloro-2-[(E)-2-(2-cyclopentyloxy-3-methoxyphenyl)vinyl]-1H-benzimidazol-1-yl}nicotinonitrile]"
53.5,75.5,,,"CCOC(=O)c1ccc(-n2c(/C=C/c3cccc(OC)c3OC3CCCC3)nc3cc(F)c(F)cc32)nn1 [Example 73, Ethyl 6-{2-[(E)-2-(2-cyclopentyloxy-3-methoxyphenyl)vinyl]-5,6-difluoro-1H-benzimidazol-1-yl}pyridazine-3-carboxylate]"
1.7,1.51,,,"COc1cccc(/C=C/c2nc3cc(F)c(F)cc3n2-c2ccc(C(=O)O)nn2)c1OC1CCCC1 [Example 74, 6-{2-[(E)-2-(2-Cyclopentyloxy-3-methoxyphenyl)vinyl]-5,6-difluoro-1H-benzimidazol-1-yl}pyridazine-3-carboxylic acid]"
34.4,90.7,,,"COc1cccc(/C=C/c2nc3cc(F)c(F)cc3n2-c2ccc(C(N)=O)nn2)c1OC1CCCC1 [Example 75, 6-{2-[(E)-2-(2-Cyclopentyloxy-3-methoxyphenyl)vinyl]-5,6-difluoro-1H-benzimidazol-1-yl}pyridazine-3-carboxamide]"
96.3,97,6.30 to 7.00,,"COc1cccc(/C=C/c2nc3cc(F)c(F)cc3n2-c2ccc(C#N)nn2)c1OC1CCCC1 [Example 76, 6-{2-[(E)-2-(2-Cyclopentyloxy-3-methoxyphenyl)vinyl]-5,6-difluoro-1H-benzimidazol-1-yl}pyridazine-3-carbonitrile]"
93.2,98.7,7.00 to 7.30,,"CCC(CC)Oc1c(/C=C/c2nc3cc(F)c(F)cc3n2-c2ccc(C#N)cn2)cccc1OC [Example 77, 6-{2-[(E)-2-(2-(1-ethylpropoxy)-3-methoxyphenyl)vinyl]-5,6-difluoro-1H-benzimidazol-1-yl}nicotinonitrile]"
92.7,96.8,7.00 to 7.30,,"CCCCCOc1c(/C=C/c2nc3cc(F)cc(F)c3n2-c2ccc(C#N)cn2)cccc1OC [Example 78, 6-{5,7-Difluoro-2-[(E)-2-(2-pentyloxy-3-methoxyphenyl)vinyl]-1H-benzimidazol-1-yl}nicotinonitrile]"
93.7,96.8,7.00 to 7.30,7.16,"COc1cccc(/C=C/c2nc3cc(F)cc(F)c3n2-c2ccc(C#N)cn2)c1OC1CCCC1 [Example 79, 6-{5,7-Difluoro-2-[(E)-2-(2-[cyclopentyloxy]-3-methoxyphenyl)vinyl]-1H-benzimidazol-1-yl}nicotinonitrile]"
97.6,98.8,7.00 to 7.30,,"COc1cccc(/C=C/c2nc3c(F)cc(F)cc3n2-c2ccc(C#N)cn2)c1OC1CCCC1 [Example 80, 6-{4,6-Difluoro-2-[(E)-2-(2-[cyclopentyloxy]-3-methoxyphenyl)vinyl]-1H-benzimidazol-1-yl}nicotinonitrile]"
90.7,95.7,> 7.30,,"CCCCCOc1c(/C=C/c2nc3c(F)c(F)c(F)cc3n2-c2ccc(C#N)cn2)cccc1OC [Example 81, 6-{2-[(E)-2-(2-pentyloxy-3-methoxyphenyl)vinyl]-4,5,6-trifluoro-1H-benzimidazol-1-yl}nicotinonitrile]"
97,98.9,7.00 to 7.30,,"CCCCCOc1c(/C=C/c2nc3cc(F)c(F)cc3n2-c2ccc(C#N)cn2)cccc1OC(F)F [Example 82, 6-(2-{(E)-2-[3-(Difluoromethoxy)-2-pentyloxyphenyl]vinyl}-5,6-difluoro-1H-benzimidazol-1-yl)nicotinonitrile]"
96.7,97.7,> 7.30,,"N#Cc1ccc(-n2c(/C=C/c3cccc(OC(F)F)c3OCC3CCC3)nc3cc(F)c(F)cc32)nc1 [Example 83, 6-(2-{(E)-2-[2-(Cyclobutylmethoxy)-3-difluoromethoxyphenyl]vinyl}-5,6-difluoro-1H-benzimidazol-1-yl)nicotinonitrile]"
98.4,99.3,> 7.30,,"N#Cc1ccc(-n2c(/C=C/c3cccc(OC(F)F)c3OC3CCCC3)nc3cc(F)c(F)cc32)nc1 [Example 84, 6-(2-{(E)-2-[2-(Cyclopentyloxy)-3-difluoromethoxyphenyl-]vinyl}-5,6-difluoro-1H-benzimidazol-1-yl)nicotinonitrile]"
